# Molecular target: T1, human IDO1 (Homo sapiens, UniProt P14902)
# T1 construct: expressed in transfected cells
# Assay: IDO inhibition assay in human IDO1/HEK293 cells (IDO1 HEK Human)
# Format: cell-based
# Conditions: HEK293 cells stably expressing human IDO1; 20 hours incubation; absorbance at 490 nm after Ehrlich reagent
# Protocol: HEK293 cells were transfected with a pCDNA-based mammalian expression vector harboring human IDO1 cDNA (NM 002164.2) by electroporation. They were cultured in medium (DMEM with 10% FBS) containing 1 mg/ml G418 for two weeks. Clones of HEK293 cells that stably expressed human IDO1 protein were selected and expanded for IDO inhibition assay.
# The human IDO1/HEK293 cells were seeded at 10,000 cells per 50 μL per well with RPMI/phenol red free media contains 10% FBS in a 384-well black wall clear bottom tissue culture plate (Matrix Technologies LLC) 100 nL of certain concentration of compound was then added to each well using ECHO liquid handling systems. The cells were incubated for 20 hours in 37° C. incubator with 5% CO2.
# The compound treatments were stopped by adding trichloroacetic acid (Sigma-Aldrich) to a final concentration at 0.2%. The cell plate was further incubated at 50° C. for 30 minute. The equal volume supernatant (20 μL) and 0.2% (w/v) Ehrlich reagent (4-dimethylaminobenzaldehyde, Sigma-Aldrich) in glacial acetic acid were mixed in a new clear bottom 384-well plate. This plate was then incubated at RT for 30 minute. The absorbance at 490 nm was measured on Envision plate reader.
# Compound IC50 values were calculated using the counts of 500 nM of a reference standard treatment as one hundred percent inhibition, and counts of no compound but DMSO treatment as zero percent inhibition.
# T1 sequence (P14902 whole entry): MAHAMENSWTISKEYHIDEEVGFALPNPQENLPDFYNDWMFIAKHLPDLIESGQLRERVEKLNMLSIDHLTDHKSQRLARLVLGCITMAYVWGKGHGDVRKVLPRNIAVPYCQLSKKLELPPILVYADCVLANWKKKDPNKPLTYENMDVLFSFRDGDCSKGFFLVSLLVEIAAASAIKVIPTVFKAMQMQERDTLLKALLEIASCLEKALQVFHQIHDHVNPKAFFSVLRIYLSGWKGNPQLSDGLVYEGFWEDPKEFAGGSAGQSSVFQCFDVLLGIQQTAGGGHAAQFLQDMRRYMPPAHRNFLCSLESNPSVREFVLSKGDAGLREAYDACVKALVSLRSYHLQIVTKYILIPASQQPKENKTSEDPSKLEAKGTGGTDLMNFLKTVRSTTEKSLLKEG
row,Structure (SMILES),IC50 [nM]
1,"CC1CCOc2c(Nc3nc4ccccc4[nH]3)cc(-c3ccccc3-c3nnn[nH]3)cc2C1c1ccccc1 (single isomer, unassigned) [Example 52, N-(7-(2-(1H-tetrazol-5-yl)phenyl)-4-methyl-5-phenyl-2,3,4,5-tetrahydrobenzo[b]oxepin-9-yl)-1H-benzo[d]imidazol-2-amine]",499
2,"COCC(CC(=O)O)c1cc(Nc2ccc(C#N)cc2)c2c(c1)C(C1CC1)CCCO2 (single isomer, unassigned) [131 (dia. 1), 3-(9-(4-Cyanophenylamino)-5-cyclopropyl-2,3,4,5-tetrahydrobenzo[b]oxepin-7-yl)-4-methoxybutanoic acid]",25.6
3,"CCC(C)C1CCCOc2c(NC(=O)Cc3ccc(C)cc3)cc(-c3ccccc3-c3nnn[nH]3)cc21 (single isomer, unassigned) [30 (Dia. mix 2), N-(7-(2-(1H-tetrazol-5-yl)phenyl)-5-(sec-butyl)-2,3,4,5-tetrahydrobenzo[b]oxepin-9-yl)-2-(p-tolyl)acetamide]",11.7
4,"c1ccc(C2CCCOc3c(Nc4nc5ccccc5o4)cc(-c4ccccc4-c4nnn[nH]4)cc32)cc1 (single isomer, unassigned) [53 (En. 2), N-(7-(2-(1H-tetrazol-5-yl)phenyl)-5-phenyl-2,3,4,5-tetrahydrobenzo[b]oxepin-9-yl) benzo[d] oxazol-2-amine]",1.3
5,"O=C(Nc1ccc(F)cc1F)Nc1cc(-c2ccccc2-c2nnn[nH]2)cc2c1OCCCC2c1ccccc1 (stereo not drawn) [Example 21, 1-(7-(2-(1H-tetrazol-5-yl)phenyl)-5-phenyl-2,3,4,5-tetrahydrobenzo[b]oxepin-9-yl)-3-(2,4-difluorophenyl)urea]",177
6,"O=C(Nc1ccccc1F)Nc1cc(-c2ccccc2-c2nnn[nH]2)cc2c1OCCCC2C1CC1 (single isomer, unassigned) [38 (En. 2), 1-(7-(2-(1H-tetrazol-5-yl)phenyl)-5-cyclopropyl-2,3,4,5-tetrahydrobenzo[b]oxepin-9-yl)-3-(2-fluorophenyl)urea]",19.4
7,"CC(=O)NS(=O)(=O)c1ccccc1-c1cc(NC(=O)Nc2ccc(C)cc2)c2c(c1)C(c1ccccc1)CCCO2 (single isomer, unassigned) [59 (En. 2), N-((2-(5-phenyl-9-(3-(p-tolyl)ureido)-2,3,4,5-tetrahydrobenzo[b]oxepin-7-yl)phenyl)sulfonyl)acetamide]",280
8,"c1ccc(C2CCCOc3c(Nc4nc5ccccc5o4)cc(-c4ccccc4-c4nnn[nH]4)cc32)cc1 (racemic) [Example 53, N-(7-(2-(1H-tetrazol-5-yl)phenyl)-5-phenyl-2,3,4,5-tetrahydrobenzo[b]oxepin-9-yl) benzo[d] oxazol-2-amine]",4.2
9,"Cc1ccc(CC(=O)Nc2cc(-c3ccccc3-c3nnn[nH]3)cc3c2OCCCC3C2CC2)cc1 (single isomer, unassigned) [37 (En. 2), N-(7-(2-(1H-tetrazol-5-yl)phenyl)-5-cyclopropyl-2,3,4,5-tetrahydrobenzo[b]oxepin-9-yl)-2-(p-tolyl)acetamide]",30.8
10,"O=C(Cc1ccccc1F)Nc1cc(-c2ccccc2-c2nnn[nH]2)cc2c1OCCCC2C1CC1 (single isomer, unassigned) [40 (En. 2), N-(7-(2-(1H-tetrazol-5-yl)phenyl)-5-cyclopropyl-2,3,4,5-tetrahydrobenzo[b]oxepin-9-yl)-2-(2-fluorophenyl)acetamide]",58.6
11,"Fc1ccc2nc(Nc3cc(-c4ccccc4-c4nnn[nH]4)cc4c3OCCCC4c3ccccc3)sc2c1 (single isomer, unassigned) [57 (En. 1), N-(7-(2-(1H-tetrazol-5-yl)phenyl)-5-phenyl-2,3,4,5-tetrahydrobenzo[b]oxepin-9-yl)-6-fluorobenzo[d]thiazol-2-amine]",849
12,"Cc1ccc(CC(=O)Nc2cc(-c3ccccc3-c3nnn[nH]3)cc3c2OCCCC3c2ccccc2)cc1 (single isomer, unassigned) [Example 2-2, N-(7-(2-(1H-tetrazol-5-yl)phenyl)-5-phenyl-2,3,4,5-tetrahydrobenzo[b]oxepin-9-yl)-2-(p-tolyl)acetamide]",31.8
13,"O=C(Nc1ccc(Cl)cc1F)Nc1cc(-c2ccccc2-c2nnn[nH]2)cc2c1OCCCC2C1CC1 (single isomer, unassigned) [41 (En. 2), 1-(7-(2-(1H-tetrazol-5-yl)phenyl)-5-cyclopropyl-2,3,4,5-tetrahydrobenzo[b]oxepin-9-yl)-3-(4-chloro-2-fluorophenyl)urea]",93.8
14,"O=C(Nc1ccccc1F)Nc1cc(-c2ccccc2-c2nnn[nH]2)cc2c1OCCCC2c1ccccc1 (single isomer, unassigned) [10 (En. 1), 1-(7-(2-(1H-tetrazol-5-yl)phenyl)-5-phenyl-2,3,4,5-tetrahydrobenzo[b]oxepin-9-yl)-3-(2-fluorophenyl)urea]",1450
15,"Cc1cnc(Nc2cc(-c3ccccc3-c3nnn[nH]3)cc3c2OCCCC3c2ccccc2)nc1 (racemic) [55 (Rac), N-(7-(2-(1H-tetrazol-5-yl)phenyl)-5-phenyl-2,3,4,5-tetrahydrobenzo[b]oxepin-9-yl)-5-methylpyrimidin-2-amine]",155
16,"O=C(Nc1ccccc1F)Nc1cc(-c2ccccc2-c2noc(=O)[nH]2)cc2c1OCCCC2C1CC1 (stereo not drawn) [Example 35, 1-(5-cyclopropyl-7-(2-(5-oxo-4,5-dihydro-1,2,4-oxadiazol-3-yl)phenyl)-2,3,4,5-tetrahydrobenzo[b]oxepin-9-yl)-3-(2-fluorophenyl)urea]",19.7
17,"Cc1ccc(NC(=O)Nc2cc(-c3ccccc3-c3nnn[nH]3)cc3c2OCC(O)C(O)C3c2ccccc2)cc1 (single isomer, unassigned) [9 (En. 1), 1-(7-(2-(1H-tetrazol-5-yl)phenyl)-3,4-dihydroxy-5-phenyl-2,3,4,5-tetrahydrobenzo[b]oxepin-9-yl)-3-(p-tolyl)urea]",> 6000

# Next, values leading:
row,IC50 [nM],Structure (SMILES)
1,105,"C=C[C@H]1Oc2c(NC(=O)Nc3ccc(C)cc3)cc(-c3ccccc3-c3nnn[nH]3)cc2[C@@H]1c1ccccc1 (single isomer, unassigned) [Example 88, 1-((trans)-5-(2-(1H-tetrazol-5-yl)phenyl)-3-phenyl-2-vinyl-2,3-dihydrobenzofuran-7-yl)-3-(p-tolyl)urea]"
2,7.1,"C=C[C@@H]1Oc2c(NC(=O)Nc3ccc(C)cc3)cc(-c3ccccc3-c3nnn[nH]3)cc2[C@H]1CCC(F)(F)F (single isomer, unassigned) [Example 101, 1-((trans)-5-(2-(1H-tetrazol-5-yl)phenyl)-3-(3,3,3-trifluoropropyl)-2-vinyl-2,3-dihydrobenzofuran-7-yl)-3-(p-tolyl)urea]"
3,16,"C=C[C@H]1Oc2c(NC(=O)Nc3ccc(C)cc3)cc(-c3ccccc3-c3nnn[nH]3)cc2[C@@H]1CCC(F)(F)F (single isomer, unassigned) [Example 129, 1-((trans)-5-(2-(1H-tetrazol-5-yl)phenyl)-3-(3,3,3-trifluoropropyl)-2-vinyl-2,3-dihydrobenzofuran-7-yl)-3-(p-tolyl)urea]"
4,381,"COC(=O)c1c(OC)cccc1-c1cc(NC(=O)Nc2ccc(C)cc2)c2c(c1)C(c1ccccc1)CCCO2 (stereo not drawn) [Example 65, methyl 2-methoxy-6-(5-phenyl-9-(3-(p-tolyl)ureido)-2,3,4,5-tetrahydrobenzo[b]oxepin-7-yl)benzoate]"
5,125,"Cc1ccc(NC(=O)Nc2cc(-c3cc(F)ccc3C(=O)O)cc3c2O[C@H](C)[C@H]3c2ccccc2)cc1 (relative stereo) [Example 116, rel-4-fluoro-2-((2R,3S)-2-methyl-3-phenyl-7-(3-(p-tolyl)ureido)-2,3-dihydrobenzofuran-5-yl)benzoic acid]"
6,7900,"C=CC1Oc2c(NC(=O)Nc3ccc(C)cc3)cc(C3(c4nnn[nH]4)CC3)cc2C1c1ccccc1 (racemic) [Example 112, (+/−)1-(5-(1-(1H-tetrazol-5-yl)cyclopropyl)-3-phenyl-2-vinyl-2,3-dihydrobenzofuran-7-yl)-3-(p-tolyl)urea]"
7,92,"CC1(C)Oc2c(NC(=O)Nc3ccccc3F)cc(-c3ccccc3-c3nnn[nH]3)cc2C1c1ccccc1 (racemic) [Example 125, (±)-1-(5-(2-(1H-Tetrazol-5-yl)phenyl)-2,2-dimethyl-3-phenyl-2,3-dihydrobenzofuran-7-yl)-3-(2-fluorophenyl)urea]"
8,13,CCC1Oc2c(NC(=O)Nc3ccc(C)cc3)cc(-c3ccccc3-c3nnn[nH]3)cc2C1CCC(F)(F)F (racemic) [Example 102]
9,19,"C=C[C@H]1Oc2c(NC(=O)Nc3ccc(C)cc3)cc(-c3ccccc3-c3nnn[nH]3)cc2[C@@H]1CCC(F)(F)F (racemic) [Example 94, (+/−)-1-((trans)-5-(2-(1H-tetrazol-5-yl)phenyl)-3-(3,3,3-trifluoropropyl)-2-vinyl-2,3-dihydrobenzofuran-7-yl)-3-(p-tolyl)urea]"
10,8.3,"Cc1ccc(-c2nnn[nH]2)c(-c2cc(Nc3ccc(Cl)c(F)c3)c3c(c2)C(c2ccccc2)CCCO3)c1 (single isomer, unassigned) [Example 76, N-(4-chloro-3-fluorophenyl)-7-(5-methyl-2-(1H-tetrazol-5-yl)phenyl)-5-phenyl-2,3,4,5-tetrahydrobenzo[b]oxepin-9-amine]"
